Reference: patent publication US20100267561A1, “HERBICIDAL PYRIDAZINONE DERIVATIVES” (priority 2007, published 2010)

Experiments:
Format in all cases: in vivo
[1] = system: downy bromegrass (Bromus tectorum); assay: Test C pre-/postemergence plant response; conditions: Preemergence
Summary of the method: (§1)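 Greenhouse-type test under controlled conditions: soil-surface preemergence treatment of sown seed and foliar postemergence treatment of seedlings 2–18 cm tall. Each compound was in non-phytotoxic solvent with surfactant. Response was rated by eye after 15–25 days, 0 to 100, against controls.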

wild oat (Avena fatua) = assay: Test C pre-/postemergence plant response; conditions: Preemergence
Summary of the method: as §1

[2] = system: Italian ryegrass (Lolium multiflorum); assay: Test E pre-/postemergence plant response; conditions: scale 0 to 100
Summary of the method: (§2)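 In this greenhouse assay, sown seeds received preemergence treatment and young plants of 2 to 18 cm (1- to 4-leaf stage) received postemergence treatment, both with compound in a non-phytotoxic solvent and surfactant vehicle. Effects were rated visually 14 to 21 days later on a 0–100 control scale.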

[3] = system: bermudagrass (Cynodon dactylon); assay: Test E pre-/postemergence plant response; conditions: scale 0 to 100
Summary of the method: as §2

[4] = system: black mustard (Brassica nigra); assay: Test E pre-/postemergence plant response; conditions: scale 0 to 100
Summary of the method: as §2

[5] = system: broadleaf signalgrass (Brachiaria platyphylla); assay: Test E pre-/postemergence plant response; conditions: scale 0 to 100
Summary of the method: as §2

[6] = system: common purslane (Portulaca oleracea); assay: Test E pre-/postemergence plant response; conditions: scale 0 to 100
Summary of the method: as §2

[7] = system: dallisgrass (Paspalum dilatatum); assay: Test E pre-/postemergence plant response; conditions: scale 0 to 100
Summary of the method: as §2

[8] = system: itchgrass (Rottboellia cochinchinensis); assay: Test E pre-/postemergence plant response; conditions: scale 0 to 100
Summary of the method: as §2

[9] = system: johnsongrass (Sorghum halepense); assay: Test E pre-/postemergence plant response; conditions: scale 0 to 100
Summary of the method: as §2

[10] = system: naked crabgrass (Digitaria nuda); assay: Test E pre-/postemergence plant response; conditions: scale 0 to 100
Summary of the method: as §2

[11] = system: quackgrass (Elytrigia repens); assay: Test E pre-/postemergence plant response; conditions: scale 0 to 100
Summary of the method: as §2

[12] = system: surinam grass (Brachiaria decumbens); assay: Test E pre-/postemergence plant response; conditions: scale 0 to 100
Summary of the method: as §2

[13] = 8 g ai/ha, scale 0 to 100 (0 no effect, 100 complete control)
[14] = 16 g ai/ha, scale 0 to 100 (0 no effect, 100 complete control)
[15] = 31 g ai/ha, scale 0 to 100 (0 no effect, 100 complete control)
[16] = 62 g ai/ha, scale 0 to 100, 0 no effect, 100 complete control

CCc1cc(-c2ccc(Cl)cc2)nn1-c1c(O)cnn(C)c1=O [Compound 21]
Plant response rating, Bromegrass, Downy [1, 13]: 0
Plant response rating, Bromegrass, Downy [1, 14]: 40
Plant response rating, Bromegrass, Downy [1, 15]: 75
Plant response rating, Bromegrass, Downy [1, 16]: 95
Plant response rating, Oat, Wild (wild oat (Avena fatua); [13]): 65
Plant response rating, Oat, Wild (wild oat (Avena fatua); [14]): 75
Plant response rating, Oat, Wild (wild oat (Avena fatua); [15]): 95
Plant response rating, Oat, Wild (wild oat (Avena fatua); [16]): 100
Plant response rating, Ryegrass, Italian ([2]; 16 g ai/ha, Preemergence): 100
Plant response rating, Ryegrass, Italian ([2]; 31 g ai/ha, Preemergence): 100
Plant response rating, Ryegrass, Italian ([2]; 62 g ai/ha, Preemergence): 100
Plant response rating, Ryegrass, Italian ([2]; Postemergence, 8 g ai/ha): 80
Plant response rating, Ryegrass, Italian ([2]; Postemergence, 16 g ai/ha): 98
Plant response rating, Ryegrass, Italian ([2]; Postemergence, 31 g ai/ha): 100
Plant response rating, Ryegrass, Italian ([2]; Postemergence, 62 g ai/ha): 100
Plant response rating, Bermudagrass ([3]; 8 g ai/ha, Preemergence): 40
Plant response rating, Bermudagrass ([3]; 16 g ai/ha, Preemergence): 90
Plant response rating, Bermudagrass ([3]; 31 g ai/ha, Preemergence): 95
Plant response rating, Bermudagrass ([3]; 62 g ai/ha, Preemergence): 100
Plant response rating, Bermudagrass ([3]; Postemergence, 8 g ai/ha): 40
Plant response rating, Bermudagrass ([3]; Postemergence, 16 g ai/ha): 50
Plant response rating, Bermudagrass ([3]; Postemergence, 31 g ai/ha): 65
Plant response rating, Bermudagrass ([3]; Postemergence, 62 g ai/ha): 75
Plant response rating, Mustard, Black ([4]; 8 g ai/ha, Preemergence): 0
Plant response rating, Mustard, Black ([4]; 16 g ai/ha, Preemergence): 0
Plant response rating, Mustard, Black ([4]; 31 g ai/ha, Preemergence): 0
Plant response rating, Mustard, Black ([4]; 62 g ai/ha, Preemergence): 0
Plant response rating, Mustard, Black ([4]; Postemergence, 8 g ai/ha): 0
Plant response rating, Mustard, Black ([4]; Postemergence, 16 g ai/ha): 0
Plant response rating, Mustard, Black ([4]; Postemergence, 31 g ai/ha): 0
Plant response rating, Mustard, Black ([4]; Postemergence, 62 g ai/ha): 0
Plant response rating, Signalgrass ([5]; 16 g ai/ha, Preemergence): 98
Plant response rating, Signalgrass ([5]; 31 g ai/ha, Preemergence): 100
Plant response rating, Signalgrass ([5]; 62 g ai/ha, Preemergence): 100
Plant response rating, Signalgrass ([5]; Postemergence, 8 g ai/ha): 80
Plant response rating, Signalgrass ([5]; Postemergence, 16 g ai/ha): 90
Plant response rating, Signalgrass ([5]; Postemergence, 31 g ai/ha): 100
Plant response rating, Signalgrass ([5]; Postemergence, 62 g ai/ha): 100
Plant response rating, Purslane ([6]; 16 g ai/ha, Preemergence): 0
Plant response rating, Purslane ([6]; 31 g ai/ha, Preemergence): 0
Plant response rating, Purslane ([6]; 62 g ai/ha, Preemergence): 0
Plant response rating, Purslane ([6]; Postemergence, 8 g ai/ha): 0
Plant response rating, Purslane ([6]; Postemergence, 16 g ai/ha): 0
Plant response rating, Purslane ([6]; Postemergence, 31 g ai/ha): 0
Plant response rating, Purslane ([6]; Postemergence, 62 g ai/ha): 0
Plant response rating, Dallisgrass ([7]; 8 g ai/ha, Preemergence): 80
Plant response rating, Dallisgrass ([7]; 16 g ai/ha, Preemergence): 100
Plant response rating, Dallisgrass ([7]; 31 g ai/ha, Preemergence): 100
Plant response rating, Dallisgrass ([7]; 62 g ai/ha, Preemergence): 100
Plant response rating, Dallisgrass ([7]; Postemergence, 8 g ai/ha): 75
Plant response rating, Dallisgrass ([7]; Postemergence, 16 g ai/ha): 80
Plant response rating, Dallisgrass ([7]; Postemergence, 31 g ai/ha): 85
Plant response rating, Dallisgrass ([7]; Postemergence, 62 g ai/ha): 98
Plant response rating, Itchgrass ([8]; 16 g ai/ha, Preemergence): 65
Plant response rating, Itchgrass ([8]; 31 g ai/ha, Preemergence): 75
Plant response rating, Itchgrass ([8]; 62 g ai/ha, Preemergence): 80
Plant response rating, Itchgrass ([8]; Postemergence, 8 g ai/ha): 50
Plant response rating, Itchgrass ([8]; Postemergence, 16 g ai/ha): 65
Plant response rating, Itchgrass ([8]; Postemergence, 31 g ai/ha): 75
Plant response rating, Itchgrass ([8]; Postemergence, 62 g ai/ha): 75
Plant response rating, Johnsongrass ([9]; 16 g ai/ha, Preemergence): 75
Plant response rating, Johnsongrass ([9]; 31 g ai/ha, Preemergence): 90
Plant response rating, Johnsongrass ([9]; 62 g ai/ha, Preemergence): 95
Plant response rating, Johnsongrass ([9]; Postemergence, 8 g ai/ha): 50
Plant response rating, Johnsongrass ([9]; Postemergence, 16 g ai/ha): 65
Plant response rating, Johnsongrass ([9]; Postemergence, 31 g ai/ha): 85
Plant response rating, Johnsongrass ([9]; Postemergence, 62 g ai/ha): 100
Plant response rating, Crabgrass, Naked ([10]; 16 g ai/ha, Preemergence): 95
Plant response rating, Crabgrass, Naked ([10]; 31 g ai/ha, Preemergence): 100
Plant response rating, Crabgrass, Naked ([10]; 62 g ai/ha, Preemergence): 100
Plant response rating, Crabgrass, Naked ([10]; Postemergence, 8 g ai/ha): 80
Plant response rating, Crabgrass, Naked ([10]; Postemergence, 16 g ai/ha): 90
Plant response rating, Crabgrass, Naked ([10]; Postemergence, 31 g ai/ha): 98
Plant response rating, Crabgrass, Naked ([10]; Postemergence, 62 g ai/ha): 100
Plant response rating, Quackgrass ([11]; 16 g ai/ha, Preemergence): 50
Plant response rating, Quackgrass ([11]; 31 g ai/ha, Preemergence): 90
Plant response rating, Quackgrass ([11]; 62 g ai/ha, Preemergence): 95
Plant response rating, Quackgrass ([11]; Postemergence, 8 g ai/ha): 20
Plant response rating, Quackgrass ([11]; Postemergence, 16 g ai/ha): 35
Plant response rating, Quackgrass ([11]; Postemergence, 31 g ai/ha): 40
Plant response rating, Quackgrass ([11]; Postemergence, 62 g ai/ha): 80
Plant response rating, Surinam Grass ([12]; 16 g ai/ha, Preemergence): 100
Plant response rating, Surinam Grass ([12]; 31 g ai/ha, Preemergence): 100
Plant response rating, Surinam Grass ([12]; 62 g ai/ha, Preemergence): 100
Plant response rating, Surinam Grass ([12]; Postemergence, 8 g ai/ha): 95
Plant response rating, Surinam Grass ([12]; Postemergence, 16 g ai/ha): 95
Plant response rating, Surinam Grass ([12]; Postemergence, 31 g ai/ha): 100
Plant response rating, Surinam Grass ([12]; Postemergence, 62 g ai/ha): 100

Cc1cc(-c2ccc(Cl)cc2)nn1-c1c(OC(=O)c2cccc(Cl)c2)cnn(C)c1=O [Compound 32]
Plant response rating, Bromegrass, Downy [1, 13]: 0
Plant response rating, Bromegrass, Downy [1, 14]: 20
Plant response rating, Bromegrass, Downy [1, 15]: 20
Plant response rating, Bromegrass, Downy [1, 16]: 60
Plant response rating, Oat, Wild (wild oat (Avena fatua); [13]): 0
Plant response rating, Oat, Wild (wild oat (Avena fatua); [14]): 10
Plant response rating, Oat, Wild (wild oat (Avena fatua); [15]): 65
Plant response rating, Oat, Wild (wild oat (Avena fatua); [16]): 70
Plant response rating, Ryegrass, Italian ([2]; Postemergence, 8 g ai/ha): 75
Plant response rating, Ryegrass, Italian ([2]; Postemergence, 16 g ai/ha): 95
Plant response rating, Ryegrass, Italian ([2]; Postemergence, 31 g ai/ha): 95
Plant response rating, Ryegrass, Italian ([2]; Postemergence, 62 g ai/ha): 98
Plant response rating, Bermudagrass ([3]; Postemergence, 8 g ai/ha): 5
Plant response rating, Bermudagrass ([3]; Postemergence, 16 g ai/ha): 20
Plant response rating, Bermudagrass ([3]; Postemergence, 31 g ai/ha): 40
Plant response rating, Bermudagrass ([3]; Postemergence, 62 g ai/ha): 75
Plant response rating, Mustard, Black ([4]; Postemergence, 8 g ai/ha): 0
Plant response rating, Mustard, Black ([4]; Postemergence, 16 g ai/ha): 0
Plant response rating, Mustard, Black ([4]; Postemergence, 31 g ai/ha): 0
Plant response rating, Mustard, Black ([4]; Postemergence, 62 g ai/ha): 0
Plant response rating, Signalgrass ([5]; Postemergence, 8 g ai/ha): 80
Plant response rating, Signalgrass ([5]; Postemergence, 16 g ai/ha): 80
Plant response rating, Signalgrass ([5]; Postemergence, 31 g ai/ha): 95
Plant response rating, Signalgrass ([5]; Postemergence, 62 g ai/ha): 100
Plant response rating, Purslane ([6]; Postemergence, 8 g ai/ha): 0
Plant response rating, Purslane ([6]; Postemergence, 16 g ai/ha): 0
Plant response rating, Purslane ([6]; Postemergence, 31 g ai/ha): 0
Plant response rating, Purslane ([6]; Postemergence, 62 g ai/ha): 0
Plant response rating, Dallisgrass ([7]; Postemergence, 8 g ai/ha): 0
Plant response rating, Dallisgrass ([7]; Postemergence, 16 g ai/ha): 20
Plant response rating, Dallisgrass ([7]; Postemergence, 31 g ai/ha): 30
Plant response rating, Dallisgrass ([7]; Postemergence, 62 g ai/ha): 40
Plant response rating, Itchgrass ([8]; Postemergence, 8 g ai/ha): 30
Plant response rating, Itchgrass ([8]; Postemergence, 16 g ai/ha): 75
Plant response rating, Itchgrass ([8]; Postemergence, 31 g ai/ha): 90
Plant response rating, Itchgrass ([8]; Postemergence, 62 g ai/ha): 90
Plant response rating, Johnsongrass ([9]; Postemergence, 8 g ai/ha): 50
Plant response rating, Johnsongrass ([9]; Postemergence, 16 g ai/ha): 80
Plant response rating, Johnsongrass ([9]; Postemergence, 31 g ai/ha): 98
Plant response rating, Johnsongrass ([9]; Postemergence, 62 g ai/ha): 100
Plant response rating, Crabgrass, Naked ([10]; Postemergence, 8 g ai/ha): 60
Plant response rating, Crabgrass, Naked ([10]; Postemergence, 31 g ai/ha): 80
Plant response rating, Crabgrass, Naked ([10]; Postemergence, 62 g ai/ha): 90
Plant response rating, Quackgrass ([11]; Postemergence, 8 g ai/ha): 0
Plant response rating, Quackgrass ([11]; Postemergence, 16 g ai/ha): 0
Plant response rating, Quackgrass ([11]; Postemergence, 31 g ai/ha): 0
Plant response rating, Quackgrass ([11]; Postemergence, 62 g ai/ha): 0
Plant response rating, Surinam Grass ([12]; Postemergence, 8 g ai/ha): 80
Plant response rating, Surinam Grass ([12]; Postemergence, 31 g ai/ha): 100
Plant response rating, Surinam Grass ([12]; Postemergence, 62 g ai/ha): 100
